Results from patent US12479847B2 (DANA-FARBER CANCER INSTITUTE, INC., priority 2019, dated 2025).

Assays:
Assay in all cases: KINOMEscan (ScanMAX) kinase profiling
Format in all cases: binding
[1] = target: T1, panel of 468 kinases (Homo sapiens, UniProt O95382); conditions: ASK2; 1 μM; read-out: % control
T1 construct: purchased KINOMEscan (ScanMAX) service
T1 sequence (O95382 1-1288): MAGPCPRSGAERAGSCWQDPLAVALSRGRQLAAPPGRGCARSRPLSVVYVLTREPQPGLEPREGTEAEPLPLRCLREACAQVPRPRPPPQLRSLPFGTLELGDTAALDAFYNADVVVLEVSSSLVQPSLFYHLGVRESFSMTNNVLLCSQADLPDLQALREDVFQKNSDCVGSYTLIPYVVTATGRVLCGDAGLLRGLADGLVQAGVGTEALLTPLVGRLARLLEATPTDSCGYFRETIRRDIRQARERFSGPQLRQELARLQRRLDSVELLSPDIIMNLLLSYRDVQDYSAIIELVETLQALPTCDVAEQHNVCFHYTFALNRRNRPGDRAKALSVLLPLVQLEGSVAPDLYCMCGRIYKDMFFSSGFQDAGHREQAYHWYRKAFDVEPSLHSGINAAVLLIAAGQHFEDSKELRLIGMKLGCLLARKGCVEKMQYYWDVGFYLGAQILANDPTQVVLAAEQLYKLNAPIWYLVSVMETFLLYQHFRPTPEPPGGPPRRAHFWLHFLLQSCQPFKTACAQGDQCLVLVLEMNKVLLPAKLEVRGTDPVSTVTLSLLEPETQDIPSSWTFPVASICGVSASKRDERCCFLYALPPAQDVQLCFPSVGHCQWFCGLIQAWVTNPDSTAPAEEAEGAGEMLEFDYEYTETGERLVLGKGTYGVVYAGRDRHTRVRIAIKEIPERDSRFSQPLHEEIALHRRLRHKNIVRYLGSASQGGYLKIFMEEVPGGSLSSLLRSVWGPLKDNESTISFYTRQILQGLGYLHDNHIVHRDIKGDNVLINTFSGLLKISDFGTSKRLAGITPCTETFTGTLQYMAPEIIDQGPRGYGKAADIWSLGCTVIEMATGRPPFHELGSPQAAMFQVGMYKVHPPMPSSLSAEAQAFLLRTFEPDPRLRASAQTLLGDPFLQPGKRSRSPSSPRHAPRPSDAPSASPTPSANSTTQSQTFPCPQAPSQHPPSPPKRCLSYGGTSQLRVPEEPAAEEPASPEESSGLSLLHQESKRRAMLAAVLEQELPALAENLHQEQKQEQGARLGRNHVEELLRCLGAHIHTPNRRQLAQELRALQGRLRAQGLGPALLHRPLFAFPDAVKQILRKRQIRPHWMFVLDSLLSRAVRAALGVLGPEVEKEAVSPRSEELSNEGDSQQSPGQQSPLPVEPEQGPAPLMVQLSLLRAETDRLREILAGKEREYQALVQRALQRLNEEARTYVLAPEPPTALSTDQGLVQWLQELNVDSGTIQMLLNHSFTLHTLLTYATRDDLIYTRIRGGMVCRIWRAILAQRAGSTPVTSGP

[2] = target: T2, panel of 468 kinases (Homo sapiens, UniProt Q9NRP7); conditions: STK36; 1 μM; read-out: % control
T2 construct: purchased KINOMEscan (ScanMAX) service
T2 sequence (Q9NRP7 1-1315): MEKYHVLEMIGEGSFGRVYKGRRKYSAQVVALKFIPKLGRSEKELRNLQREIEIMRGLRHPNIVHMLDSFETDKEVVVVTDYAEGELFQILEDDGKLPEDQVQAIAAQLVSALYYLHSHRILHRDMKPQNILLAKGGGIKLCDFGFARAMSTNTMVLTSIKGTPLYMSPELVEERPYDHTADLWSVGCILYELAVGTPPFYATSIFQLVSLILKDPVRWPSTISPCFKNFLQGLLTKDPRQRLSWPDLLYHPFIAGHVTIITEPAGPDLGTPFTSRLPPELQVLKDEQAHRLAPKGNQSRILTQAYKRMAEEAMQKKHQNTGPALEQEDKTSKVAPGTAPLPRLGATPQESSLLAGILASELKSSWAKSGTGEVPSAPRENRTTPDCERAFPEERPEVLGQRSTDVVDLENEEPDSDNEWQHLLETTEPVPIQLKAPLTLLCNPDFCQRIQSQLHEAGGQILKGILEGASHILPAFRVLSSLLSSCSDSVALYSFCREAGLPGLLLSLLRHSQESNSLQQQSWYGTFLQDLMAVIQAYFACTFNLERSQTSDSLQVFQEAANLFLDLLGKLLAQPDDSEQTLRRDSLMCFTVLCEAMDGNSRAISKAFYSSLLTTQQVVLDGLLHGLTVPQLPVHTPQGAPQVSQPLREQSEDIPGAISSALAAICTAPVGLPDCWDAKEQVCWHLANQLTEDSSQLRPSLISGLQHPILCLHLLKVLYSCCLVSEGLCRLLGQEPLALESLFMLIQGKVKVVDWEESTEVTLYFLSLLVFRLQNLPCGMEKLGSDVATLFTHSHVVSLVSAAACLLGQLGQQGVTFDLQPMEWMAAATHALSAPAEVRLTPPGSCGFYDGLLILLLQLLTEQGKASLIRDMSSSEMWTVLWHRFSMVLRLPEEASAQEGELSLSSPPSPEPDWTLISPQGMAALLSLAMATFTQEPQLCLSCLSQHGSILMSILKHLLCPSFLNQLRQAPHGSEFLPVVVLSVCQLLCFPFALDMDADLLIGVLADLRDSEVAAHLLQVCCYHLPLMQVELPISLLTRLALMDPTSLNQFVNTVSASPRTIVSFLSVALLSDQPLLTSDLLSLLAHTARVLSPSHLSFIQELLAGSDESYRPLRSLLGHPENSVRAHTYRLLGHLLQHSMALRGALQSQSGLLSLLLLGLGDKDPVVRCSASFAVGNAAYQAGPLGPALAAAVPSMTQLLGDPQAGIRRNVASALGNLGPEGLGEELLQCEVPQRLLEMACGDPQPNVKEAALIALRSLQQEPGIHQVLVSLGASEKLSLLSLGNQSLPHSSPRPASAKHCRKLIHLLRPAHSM

[3] = target: T3, panel of 468 kinases (Homo sapiens, UniProt Q9UBF8); conditions: PIK4CB; 1 μM; read-out: % control
T3 construct: purchased KINOMEscan (ScanMAX) service

[4] = target: T4, panel of 468 kinases (Homo sapiens, UniProt Q16620); conditions: TRKB; 1 μM; read-out: % control
T4 construct: purchased KINOMEscan (ScanMAX) service
T4 sequence (Q16620 32-822): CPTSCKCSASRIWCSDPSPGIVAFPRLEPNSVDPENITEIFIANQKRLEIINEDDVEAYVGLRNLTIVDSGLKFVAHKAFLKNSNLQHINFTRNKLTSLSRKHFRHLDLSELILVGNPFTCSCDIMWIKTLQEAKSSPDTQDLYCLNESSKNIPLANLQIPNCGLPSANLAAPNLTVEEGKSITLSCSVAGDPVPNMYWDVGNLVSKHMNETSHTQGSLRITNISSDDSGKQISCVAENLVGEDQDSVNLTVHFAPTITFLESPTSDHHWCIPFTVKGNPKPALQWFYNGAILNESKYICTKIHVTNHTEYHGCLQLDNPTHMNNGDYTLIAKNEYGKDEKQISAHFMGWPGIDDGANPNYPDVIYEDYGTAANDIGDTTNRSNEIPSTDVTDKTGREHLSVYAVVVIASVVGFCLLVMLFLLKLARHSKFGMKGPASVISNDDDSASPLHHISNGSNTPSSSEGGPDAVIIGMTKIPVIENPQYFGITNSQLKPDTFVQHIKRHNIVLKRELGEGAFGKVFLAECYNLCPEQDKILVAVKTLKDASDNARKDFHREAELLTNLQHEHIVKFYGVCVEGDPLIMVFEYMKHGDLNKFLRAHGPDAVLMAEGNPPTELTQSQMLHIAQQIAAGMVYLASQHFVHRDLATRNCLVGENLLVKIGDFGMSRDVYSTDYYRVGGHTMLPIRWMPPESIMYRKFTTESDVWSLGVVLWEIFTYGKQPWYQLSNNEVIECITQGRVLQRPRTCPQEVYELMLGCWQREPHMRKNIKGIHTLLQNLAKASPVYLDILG

T3 sequence (Q9UBF8 whole entry): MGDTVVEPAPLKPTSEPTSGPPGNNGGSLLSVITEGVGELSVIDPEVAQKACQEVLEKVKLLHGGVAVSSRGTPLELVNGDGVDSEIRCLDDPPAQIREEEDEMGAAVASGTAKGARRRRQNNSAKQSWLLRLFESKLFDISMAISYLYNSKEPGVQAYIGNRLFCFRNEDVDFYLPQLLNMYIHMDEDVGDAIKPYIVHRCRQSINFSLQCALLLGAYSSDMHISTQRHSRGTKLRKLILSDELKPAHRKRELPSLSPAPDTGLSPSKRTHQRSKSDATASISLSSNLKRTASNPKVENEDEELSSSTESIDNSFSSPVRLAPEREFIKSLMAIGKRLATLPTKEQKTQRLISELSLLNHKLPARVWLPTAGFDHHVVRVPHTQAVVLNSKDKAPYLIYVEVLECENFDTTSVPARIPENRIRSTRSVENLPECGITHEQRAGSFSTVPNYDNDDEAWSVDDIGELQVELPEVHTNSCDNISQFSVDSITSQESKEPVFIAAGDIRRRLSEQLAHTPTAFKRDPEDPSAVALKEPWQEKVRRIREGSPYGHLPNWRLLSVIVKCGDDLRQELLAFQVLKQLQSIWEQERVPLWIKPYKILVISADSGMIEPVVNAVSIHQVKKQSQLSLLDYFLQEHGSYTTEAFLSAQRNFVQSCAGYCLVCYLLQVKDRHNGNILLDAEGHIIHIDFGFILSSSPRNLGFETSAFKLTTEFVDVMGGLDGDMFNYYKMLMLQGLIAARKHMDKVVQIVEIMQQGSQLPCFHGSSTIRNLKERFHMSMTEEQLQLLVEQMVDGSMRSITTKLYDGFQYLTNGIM

| Compound | remaining binding at 1 µM [1] [%] | remaining binding at 1 µM [2] [%] | remaining binding at 1 µM [3] [%] | remaining binding at 1 µM [4] [%] |
| --- | --- | --- | --- | --- |
| CNc1nc(Nc2ccc(S(=O)(=O)N3CCC(N4CCOCC4)CC3)cc2OC)nc2[nH]cc(Cl)c12 [Compound 12, 5-chloro-N2-(2-methoxy-4-((4-morpholinopiperidin-1-yl)sulfonyl)phenyl)-N4-methyl-7H-pyrrolo[2,3-d]pyrimidine-2,4-diamine] | 53 | 100 | 100 | 100 |
| CNc1nc(Nc2ccc(P3(=O)CCN(C4CCOCC4)CC3)cc2OC)nc2[nH]cc(Cl)c12 [Compound 77, 4-(4-((5-chloro-4-(methylamino)-7H-pyrrolo[2,3-d]pyrimidin-2-yl)amino)-3-methoxyphenyl)-1-(tetrahydro-2H-pyran-4-yl)-1,4-azaphosphinane 4-oxide] | 51 | 100 | 100 | 100 |
| CNc1nc(Nc2ccc(C(=O)N3CCC(N4CCOCC4)CC3)c3c2OCO3)nc2[nH]cc(Cl)c12 [Compound 75, (7-((5-chloro-4-(methylamino)-7H-pyrrolo[2,3-d]pyrimidin-2-yl)amino)benzo[d][1,3]dioxol-4-yl)(4-morpholinopiperidin-1-yl)methanone] | 39 | 100 | 100 | 100 |
